Structures can show the parent of a compound that is named as a salt. Where two headings read alike, the source gives them in different places.
Molecular target: T1, HSF1 (Homo sapiens, UniProt Q00613)
T1 construct: functionally linked to an hsp70b promoter and therefore controlled by endogenous HSF1; endogenous in cells; host or cells: HeLa cells / HeLa-derived cell line Z74
T1 sequence (Q00613 1-529): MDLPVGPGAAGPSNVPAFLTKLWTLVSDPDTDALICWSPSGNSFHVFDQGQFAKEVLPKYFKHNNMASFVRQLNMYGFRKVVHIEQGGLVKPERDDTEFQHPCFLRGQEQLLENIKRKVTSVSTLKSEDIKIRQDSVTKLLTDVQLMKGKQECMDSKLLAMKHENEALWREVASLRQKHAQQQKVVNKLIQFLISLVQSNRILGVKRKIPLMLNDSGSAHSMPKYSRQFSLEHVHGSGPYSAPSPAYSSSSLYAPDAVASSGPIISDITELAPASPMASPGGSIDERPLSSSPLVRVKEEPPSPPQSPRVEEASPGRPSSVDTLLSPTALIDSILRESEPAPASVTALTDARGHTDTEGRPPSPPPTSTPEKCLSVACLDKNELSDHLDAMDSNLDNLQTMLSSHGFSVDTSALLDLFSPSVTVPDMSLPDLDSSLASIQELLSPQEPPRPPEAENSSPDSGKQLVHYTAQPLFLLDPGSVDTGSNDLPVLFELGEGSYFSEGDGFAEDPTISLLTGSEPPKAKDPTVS
Assay: Z74 cell-based reporter assay: heat-induced RLuc expression controlled by endogenous HSF1
Conditions: for inhibition at 12.5 µM: read-out: Inhibition of HSF1 activity at 12.5 μM IHSF [RLuc] (%); for inhibition at 25 µM: read-out: Inhibition of HSF1 activity at 25 μM IHSF [RLuc] (%); for IC50: inhibition of HSF1 activity [RLuc]
Source text: For screening this sublibrary, a cell-based assay was developed. We opted for a cell-based assay, because a cell-free assay would have had to be a DNA-binding assay. Such an assay would have limited discovery to molecules capable of interfering with the DNA-binding function of HSF1. This was thought to be too narrow a focus, considering that three of the four cavities identified in the HSF1 DNA-binding domain are not near the DNA interaction region. A straightforward cell-based assay, in which a HSF1-responsive gene would be assayed, was considered likely to be over-inclusive. Compounds would be scored as hits that inhibit any factor that is involved in HSF1 activation or prevents HSF1 deactivation. These factors include protein kinases, activators of protein phosphatases, factors affecting HSF1 mRNA stability, HSP90, HDAC6, etc. For developing a more discriminating cell-based assay, advantage was taken of the modular nature of HSF1. […] The cell-based assay developed (see below for the particular format employed) compared transactivation by wild type HSF1 and chimeric HSF1 in cells exposed to an HSF1-activating heat treatment in the presence of a sublibrary compound. A compound was scored as a hit, if it inhibited the activity of wild type HSF1 but not of chimeric HSF1.
The cell-based assay made use of HeLa-derived cell line Z74 that stably contains a gene for chimeric transcription factor LexA-(human) HSF1 under the control of a CMV early promoter, a firefly luciferase (flue) gene driven by a promoter responsive to the latter chimeric transcription factor and a Renilla luciferase (rluc) gene functionally linked to an hsp70b promoter and therefore controlled by endogenous HSF1 (FIG. 1A). As is shown in FIGS. 1B & C, the reporter genes responded similarly to heat dose, i.e., their activation depended on both duration of heat exposure and temperature of the exposure. […] Depletion of HSF1 (and LexA-HSF1) by siRNA supported the notion that this stress regulation is mediated by HSF1 (and LexA-HSF1). Therefore, the Z74 line was well suited for use in a screening assay aimed at discovering molecules that inhibit heat-induced HSF1 activity through interaction with the transcription factor's DNA-binding domain.
The compounds of the afore-mentioned biased sublibrary were screened in cell line Z74 at 12.5 and 25 μM concentrations. Typically, Z74 cultures in 96-well plates were exposed to compound or vehicle for 2 h, heat-treated at 43.0° C. for 30 min, and incubated further for 6 h at 37° C. to allow for accumulation of the luciferases. RLuc and FLuc activities were determined, typically using the Dual-Glo® Luciferase Assay System (Promega Corp., Madison, Wis.), and reading luciferase light counts in a Wallac Microbeta Trilux-1450 Luminometer (PerkinElmer, Waltham, Mass.). IHSF 001 was one of two library compounds that inhibited RLuc expression but not FLuc expression in heat-treated Z74 cells (Table 1; FIG. 2A). Therefore, IHSF 001 is an inhibitor of HSF1 function that specifically acts through the HSF1 DNA-binding domain. […] A corroborating experiment utilized a cell line containing an hsp70b promoter-driven fluc gene. […] IHSF 001 is (E)-ethyl 4-oxo-4-(thiazol-2-ylamino)but-2-enoate. The compound can be obtained from commercial sources (e.g., AKE-PB-90340538, Akos).

[1] = Z74 cells, 12.5 μM IHSF, negative values marked *: compound enhanced rLuc activity
[2] = Z74 cells, 25 μM IHSF, 2 h exposure, 43° C. 30 min, 6 h at 37° C.

inhibition at 12.5 µM [1] [%] | inhibition at 25 µM [2] [%] | IC50 (Z74 cells) [µM] | Structure (SMILES) | inhibition at 12.5 µM [%] | inhibition at 25 µM [%]
34 | 50 | – | CCOC(=O)/C=C/C(=O)Nc1ncc(C)s1 [IHSF 013, (E)-3-(5-Methyl-thiazol-2-ylcarbamoyl)-acrylic acid ethyl ester] | – | –
0 | 20 | – | CCOC(=O)/C=C/C(=O)Nc1ncco1 [IHSF 015, (E)-3-(Oxazol-2-ylcarbamoyl)-acrylic acid ethyl ester] | – | –
0 | 25 | – | CCOC(=O)/C=C/C(=O)Nc1ccn(C)n1 [IHSF 016, (E)-3-(1-Methyl-1H-pyrazol-3-ylcarbamoyl)-acrylic acid ethyl ester] | – | –
32 | 37 | – | CCOC(=O)/C=C/C(=O)Nc1ccon1 [IHSF 017, (E)-3-(Isoxazol-3-ylcarbamoyl)-acrylic acid ethyl ester] | – | –
20 | 53 | 23.6 | CCOC(=O)/C=C/C(=O)Nc1nncs1 [IHSF 018, (E)-3-([1,3,4]Thiadiazol-2-ylcarbamoyl)-acrylic acid ethyl ester] | – | –
30 | 53 | 23.5 | CCOC(=O)/C=C/C(=O)Nc1ccncc1 [IHSF 020, (E)-3-(Pyridin-4-ylcarbamoyl)-acrylic acid ethyl ester] | – | –
34 | 53 | – | CCOC(=O)/C=C/C(=O)Nc1cnc(-c2ccccc2)s1 [IHSF 045, (E)-3-(2-Phenyl-thiazol-5-ylcarbamoyl)-acrylic acid ethyl ester] | – | –
33 | 70 | – | CCOC(=O)/C=C/C(=O)Nc1cc(C)no1 [IHSF 046, (E)-3-(3-Methyl-isoxazol-5-ylcarbamoyl)-acrylic acid ethyl ester] | – | –
37 | 67 | – | CCOC(=O)/C=C/C(=O)Nc1ccnc(C)c1 [IHSF 048, (E)-3-(2-Methyl-pyridin-4-ylcarbamoyl)-acrylic acid ethyl ester] | – | –
22 | 69 | 20.2 | CCOC(=O)/C=C/C(=O)Nc1nc(-c2ccccn2)cs1 [IHSF 054, (E)-3-(4-Pyridin-2-yl-thiazol-2-ylcarbamoyl)-acrylic acid ethyl ester] | – | –
35 | 61 | 19.8 | CCOC(=O)/C=C/C(=O)Nc1nc(-c2ccncc2)cs1 [IHSF 056, (E)-3-(4-Pyridin-4-yl-thiazol-2-lcarbamoyl)-acrylic acid ethyl ester] | – | –
56 | 66 | – | CCOC(=O)/C=C/C(=O)Nc1ccnc(-c2ccncc2)c1 [IHSF 076, (E)-3-([2,4′]Bipyridinyl-4-ylcarbamoyl)-acrylic acid ethyl ester] | – | –
42 | 79 | – | CCOC(=O)/C=C/C(=O)Nc1ccnc(-c2ccccc2C)c1 [IHSF 079, (E)-3-(2-o-Tolyl-pyridin-4-ylcarbamoyl)-acrylic acid ethyl ester] | – | –

More lines, now with the values behind:

Structure (SMILES) | inhibition at 12.5 µM [1] [%] | inhibition at 25 µM [2] [%] | IC50 (Z74 cells) [µM] | inhibition at 12.5 µM [%] | inhibition at 25 µM [%]
CCOC(=O)/C=C/C(=O)Nc1nc2ccccc2s1 [IHSF 010, (E)-3-(Benzothiazol-2-ylcarbamoyl)-acrylic acid ethyl ester] | 56 | 56 | – | – | –
CCOC(=O)/C=C/C(=O)Nc1nc(-c2ccccc2)cs1 [IHSF 012, (E)-3-(4-Phenyl-thiazol-2-ylcarbamoyl)-acrylic acid ethyl ester] | 68 | 86 | 11.3 | – | –
CCOC(=O)/C=C/C(=O)Nc1ncc(-c2ccccc2)s1 [IHSF 014, (E)-3-(5-Phenyl-thiazol-2-ylcarbamoyl)-acrylic acid ethyl ester] | 60 | 89 | 7.1 | – | –
COC(=O)/C=C/C(=O)Nc1nccs1 [IHSF 027, (E)-3-(Thiazol-2-ylcarbamoyl)-acrylic acid methyl ester] | 18 | 42 | – | – | –
CC(C)OC(=O)/C=C/C(=O)Nc1nccs1 [IHSF 028, (E)-3-(Thiazol-2-ylcarbamoyl)-acrylic acid isopropyl ester] | 13 | 41 | – | – | –
CCNC(=O)/C=C/C(=O)Nc1nccs1 [IHSF 030, (E)-But-2-enedioic acid ethylamide thiazol-2-ylamide] | 5 | 18 | – | – | –
CC(C)NC(=O)/C=C/C(=O)Nc1nccs1 [IHSF 031, (E)-But-2-enedioic acid isopropylamide thiazol-2-ylamide] | 15 | 24 | – | – | –
CCCCOC(=O)/C=C/C(=O)Nc1nccs1 [IHSF 042, (E)-3-(Thiazol-2-ylcarbamoyl)-acrylic acid butyl ester] | 1 | 52 | – | – | –
CCOC(=O)/C=C/C(=O)Nc1cc(-c2ccccc2)cs1 [IHSF 043, (E)-3-(4-Phenyl-thiophen-2-ylcarbamoyl)-acrylic acid ethyl ester] | 32 | 5 | – | – | –
CCOC(=O)/C=C/C(=O)Nc1nc(C2CC2)cs1 [IHSF 053, (E)-3-(4-Cyclopropyl-thiazol-2-ylcarbamoyl)-acrylic acid ethyl ester] | 15 | 29 | – | – | –
CCOC(=O)/C=C/C(=O)Nc1nc(-c2cccnc2)cs1 [IHSF 055, (E)-3-(4-Pyridin-3-yl-thiazol-2-ylcarbamoyl)-acrylic acid ethyl ester] | 27 | 74 | 18.7 | – | –
CCN(CC)C(=O)/C=C/C(=O)Nc1nc(C)cs1 [IHSF 060, (E)-But-2-enedioic acid diethyl-amide (4-methyl-thiazol-2-yl)-amide] | 16 | 19 | – | – | –
Cc1csc(NC(=O)/C=C/C(=O)N(C)C)n1 [IHSF 061, (E)-But-2-enedioic acid dimethyl-amide (4-methyl-thiazol-2-yl)-amide] | 12 | 18 | – | – | –
CCOC(=O)/C=C/C(=O)N(C)c1nccs1 [IHSF 070, (E)-3-(Methyl-thiazol-2-yl-carbamoyl)-acrylic acid ethyl ester] | 72 | 90 | 5.7 | – | –
CCOC(=O)/C=C/C(=O)Nc1ccnc(N2CCOCC2)c1 [IHSF 077, (E)-3-(2-Morpholin-4-yl-pyridin-4-ylcarbamoyl)-acrylic acid ethyl ester formic acid salt] | – | – | – | 42 | 67
CCOC(=O)/C=C/C(=O)Nc1ccnc(N2CCN(C)CC2)c1 [IHSF 078, (E)-3-[2-(4-Methyl-piperazin-1-yl)-pyridin-4-ylcarbamoyl]-acrylic acid ethyl ester formic acid salt] | – | – | – | 32 | 54

From US11597708B2, “Inhibitors of heat shock factors and uses thereof” (HSF Pharmaceuticals SA, priority 2016, dated 2023)
